Measured values from patent US20170327779A1, “METHOD FOR PRODUCING CELL AGGREGATES” (Kaneka Corporation, priority 2015, published 2017).

Tests used:
Format in all cases: cell-based
human iPS cells [1] = assay: Glucose consumption and total cell count of human iPS cells cultured in suspension with LPA or S1P; settings: 0.2 or 1 μg/mL, compared with BSA-ff alone; for number of cells (total cell count): Day 5, n=3 (FIG. 13); for glucose consumption: Days 2 to 5, n=3 (FIG. 12)
Experimental: Human iPS cell suspensions were prepared using substantially the same protocol as in Example 5. To each cell suspension were added LPA or S1P at a final concentration of 0.2 μg/mL or 1 μg/mL, and BSA-ff at a final concentration of 5 mg/mL and Y-27632 (Wako Pure Chemical Industries, Ltd.) at a final concentration of 10 μM. As a control, cell suspensions were prepared using the same protocol as in Example 5. That is, prepared were the cell suspensions solely containing BSA-ff at a final concentration of 5 mg/mL and Y-27632 at a final concentration of 10 μM.
The above cell suspensions were subjected to suspension culture for […] under the same conditions as in Example 5. At Day 2 of culture, the culture medium was changed every day with Essential 8™ culture medium supplemented with 5 mg/mL BSA-ff. At Days 2, 3, 4, and 5, the concentration of glucose in the culture supernatant was measured to calculate glucose consumption. In addition, at Day 5 of culture, cell aggregates were collected, dispersed using Accutase, and suspended in Essential 8™ culture medium supplemented with 5 mg/mL BSA-ff. A portion of each cell suspension was stained with trypan blue and the number of cells was counted. The above cell suspensions were centrifuged at 300 g for 5 min, the supernatant was then removed, and the cells were washed with PBS (phosphate buffered saline). Next, the cells were fixed with 4% PFA (paraformaldehyde) at room temperature for 20 min, then washed 3 times with PBS, and permeabilized with cold methanol at −20° C. overnight. After washed 3 times with PBS, the cells were blocked with 3% FBS (fetal calf serum)/PBS and stained using a fluorescently labeled anti-SOX2 antibody (Cat. No. 656110, Biolegend, Inc.) and a fluorescently labeled anti-OCT4 antibody (Cat. No. 653703, Biolegend, Inc.) at 4° C. for 1 h. After washed once with 3% FBS (fetal calf serum)/PBS, the cells were made to pass through a cell strainer. The resulting cells were analyzed on FACSVerse.
The following procedure was used to measure glucose consumption. Specifically, the culture supernatant was recovered at medium change and a bioanalyzer (Y512950), manufactured by YSI, Inc., was used to measure the remaining glucose amount. In this way, the glucose consumption was calculated.
A total cell count was measured at Day 5 of culture. The following procedure was used to measure the total cell count. Specifically, the cell aggregates that had been formed were treated with TrypLE Select for 5 to 10 min, pipetted using a blue tip to monodisperse as cells, and stained with trypan blue. After that, the number of cells was counted using a hemocytometer to determine the total cell count.

human iPS cells [2] = assay: Effect of LPA or S1P on cell aggregation of human iPS cells in suspension culture, microscopic observation; settings: for φ, width of the widest portion of cell aggregate (average±standard deviation): 1 day, 30 aggregates; for size of spherical cell aggregates: 0.2 μg/mL, BSA-ff 5 mg/mL, Y-27632 10 μM, 1 day suspension culture (FIG. 8)
Experimental: Human iPS cells that had been cultured using the protocol of Example 1 were treated with TrypLE Select, EDTA solution, or Accutase for 3 to 5 min and were detached. After dispersed as single cells, the cells were made to pass through a cell strainer with a pore size of 40 μm (Becton, Dickinson and Company) to monodisperse as single cells. The resulting cells were suspended in Essential 8™ medium containing a final concentration of 10 μM Y-27632 (Wako Pure Chemical Industries, Ltd.). A portion thereof was then stained with trypan blue and the number of cells was counted. Suspensions containing 2×10^5 cells per ml were prepared. To each cell suspension were added lipid-free bovine serum albumin (BSA-ff; CultureSure albumin, Wako Pure Chemical Industries, Ltd.) at a final concentration of 5 mg/mL and Y-27632 (Wako Pure Chemical Industries, Ltd.) at a final concentration of 10 μM. In addition, the following lipids were each added to the cell suspension and the cells were subjected to rotary shaking culture for 1 day under the same conditions as in Example 2 to culture human iPS cells in suspension. After one day of the suspension culture, the cells were observed under a microscope.
The lipids and additives used in this study are as follows: • LPA (Lysophosphatidic acid) (1-O-9Z-octadecenoyl-sn-glyceryl-3-phosphoric acid, a sodium salt, Cat. No. 62215, Cayman, Inc.; with an oleyl group at sn-1 position).
S1P (Sphingosine-1-phosphoric acid) (2S-amino-1-(dihydrogen phosphate)-4E-octadecene-1,3R-diol, Cat. No. 62570, Cayman, Inc.)
LPA at 0.2 μg/mL or S1P at 0.2 μg/mL was added to the human iPS cell suspension.
Human iPS cell suspensions were prepared using substantially the same protocol as in Example 5. LPA was added as a sodium salt at a concentration of 0.00128 μg/mL, 0.0064 μg/mL, 0.032 μg/mL, 0.16 μg/mL, 0.8 μg/mL, 4 μg/mL, 20 μg/mL, or 100 μg/mL. To each suspension were added BSA-ff at a final concentration of 5 mg/mL and Y-27632 (Wako Pure Chemical Industries, Ltd.) at a final concentration of 10 μM. The cells were cultured in suspension for 1 day under the same conditions as in Example 5 and then observed under a microscope.
Inspected were 30 cell aggregates on an observation image obtained when the concentration of LPA was from 0.16 to 100 μg/mL. While being compared using a micrograph scale, the width (referred to as “φ”) of the widest portion of each cell aggregate was measured to calculate an average±standard deviation.
Human iPS cell suspensions were prepared using substantially the same protocol as in Example […] was added as a free form at a concentration of 0.00128 μg/mL, 0.0064 μg/mL, 0.032 μg/mL, 0.16 μg/mL, 0.8 μg/mL, 4 μg/mL, 20 μg/mL, or 100 μg/mL. To each suspension were added BSA-ff at a final concentration of 5 mg/mL and Y-27632 (Wako Pure Chemical Industries, Ltd.) at a final concentration of 10 μM. The cells were cultured in suspension for 1 day under the same conditions as in Example 5 and then observed under a microscope.
Inspected were 30 cell aggregates on an observation image obtained when the concentration of S1P was from 0.032 to 100 μg/mL. While being compared using a micrograph scale, the width (referred to as “φ”) of the widest portion of each cell aggregate was measured to calculate an average±standard deviation. […]

human iPS cells [3] = assay: Formation of aggregates of human iPS cells by rotary shaking suspension culture with KSR or its protein-based components; settings: factor added instead of KSR; micrographs at Day 1 (FIG. 6)
Experimental: TkDN4-M cell line (Non-Patent Literature 1) was used as human iPS cells. The human iPS cells were seeded on cell culture dishes coated with Matrigel (Corning, Inc.) or Vitronectin (Life Technologies Japan Ltd.). A culture medium, which was mTeSR1 (STEMCELL Technologies, Inc.) or Essential 8™ (Life Technologies Japan Ltd.), was used for maintenance culture. As a cell detachment agent at the time of cell passage, TrypLE Select (Life Technologies Japan Ltd.) was used when the cells were cultured on Matrigel; and 0.02% EDTA (ethylene diamine tetraacetic acid) solution or Accutase (Life Technologies Japan Ltd.) was used when the cells were cultured on Vitronectin. In addition, when the cells were seeded, Y-27632 (Wako Pure Chemical Industries, Ltd.) at a concentration of 10 μM was added to a culture medium. The culture medium was changed every day. For experiments, human iPS cells (the number of passage was 50 or less) were used.
Human iPS cells were treated with TrypLE Select or EDTA solution for 3 to 5 min and were detached. After dispersed as single cells, the cells were made to pass through a cell strainer with a pore size of 40 μm (Becton, Dickinson and Company). […] A portion thereof was then stained with trypan blue and the number of cells was counted. […]

Row | Molecule | number of cells (total cell count) (human iPS cells [1]) | glucose consumption (human iPS cells [1]) | φ, width of the widest portion of cell aggregate (average±standard deviation) (human iPS cells [2]; 0.16 μg/mL) | size of spherical cell aggregates (human iPS cells [2]) | φ, width of the widest portion of cell aggregate (average±standard deviation) (human iPS cells [2]; 0.8 μg/mL) | φ, width of the widest portion of cell aggregate (average±standard deviation) (human iPS cells [2]; 4 μg/mL) | φ, width of the widest portion of cell aggregate (average±standard deviation) (human iPS cells [2]; 20 μg/mL) | φ, width of the widest portion of cell aggregate (average±standard deviation) (human iPS cells [2]; 100 μg/mL) | diameter of cell aggregates (human iPS cells [2]; LPA 0.032 μg/mL or less, 1 day (FIG. 9)) | formation of cell aggregates (human iPS cells [2]; LPA 0.16 to 100 μg/mL, 1 day (FIG. 9)) | diameter of cell aggregates (human iPS cells [2]; S1P 0.0064 μg/mL or less, 1 day (FIG. 10)) | formation of cell aggregates (human iPS cells [2]; S1P 0.032 to 100 μg/mL, 1 day (FIG. 10)) | formation of aggregates (human iPS cells [3])
1 | 1-O-9Z-octadecenoyl-sn-glyceryl-3-phosphoric acid, a sodium salt [LPA] | larger | larger | 124.9±26.5 μm | about 100 μm | 68.2±9.8 μm | 57.2±8.7 μm | 39.9±8.0 μm | 41.6±9.9 μm | ≥ 1 mm | cell aggregates with a substantially uniform size were formed |  |  | 
2 | CCCCCCCCCCCCC/C=C/[C@@H](O)[C@@H](N)COP(=O)(O)O [S1P, 2S-amino-1-(dihydrogen phosphate)-4E-octadecene-1,3R-diol] | larger | larger | 142.4±16.4 μm | about 100 μm | 118.5±21.8 μm | 109.9±23.1 μm | 94.0±19.4 μm | 89.0±19.5 μm |  |  | ≥ 1 mm | cell aggregates with a substantially uniform size were formed | 
3 | insulin: insulin (Sigma-Aldrich Co. LLC.), lipid-free protein-based component of KSR |  |  |  |  |  |  |  |  |  |  |  |  | large aggregates
4 | transferrin: transferrin (Sigma-Aldrich Co. LLC.), lipid-free protein-based component of KSR |  |  |  |  |  |  |  |  |  |  |  |  | large aggregates
